Assay results from PubChem BioAssay (NCI).
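Compound exposure: 48 hours, 5 concentrations, 96-well plates. Abbreviation: GI50, concentration required for 50% inhibition of growth. Definition used: TGI = concentration required for complete inhibition of growth.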

Columns and labels:
Test in all cases: NCI tumour cell line growth inhibition, 48 h
RXF-631 renal = system: RXF-631 renal
XF 498 CNS = system: XF 498 CNS
DLD-1 colon = system: DLD-1 colon
DMS 273 small cell lung = system: DMS 273 small cell lung
KM20L2 colon = system: KM20L2 colon
M19-MEL melanoma = system: M19-MEL melanoma
P388 leukemia = system: P388 leukemia
HS 578T breast = system: HS 578T breast
SN12K1 renal = system: SN12K1 renal
MDA-N = system: MDA-N
MDA-MB-435 = system: MDA-MB-435
P388/ADR leukemia = system: P388/ADR leukemia

| Structure (SMILES) | TGI (RXF-631 renal) [µM] | TGI (XF 498 CNS) [µM] | TGI (DLD-1 colon) [µM] | TGI (DMS 273 small cell lung) [µM] | TGI (KM20L2 colon) [µM] | TGI (M19-MEL melanoma) [µM] | GI50 (RXF-631 renal) [nM] | GI50 (XF 498 CNS) [nM] | GI50 (DLD-1 colon) [nM] | GI50 (DMS 273 small cell lung) [nM] | GI50 (KM20L2 colon) [nM] | GI50 (M19-MEL melanoma) [nM] | TGI (P388 leukemia) [nM] | TGI (HS 578T breast) [µM] | TGI (SN12K1 renal) [µM] | TGI (MDA-N) [µM] | TGI (MDA-MB-435) [µM] | TGI (P388/ADR leukemia) [µM] |
| --- | --- | --- | --- | --- | --- | --- | --- | --- | --- | --- | --- | --- | --- | --- | --- | --- | --- | --- |
| CCc1ccccc1NC(=O)C(=O)CC(=O)c1sc(Nc2ccccc2)nc1C | > 100 | > 100 | > 100 | > 100 | > 100 | > 100 | – | – | – | – | – | – | – | – | – | – | – | – |
| O=c1/c(=C/c2ccccc2F)sc2nc3ccccc3n12 | > 100 | > 100 | > 100 | > 100 | > 100 | > 100 | – | – | – | – | – | – | – | – | – | – | – | – |
| CC1=C(Oc2ccccc2)C(CCC(=O)O)c2c(O)cc(Cl)c(O)c21 (stereo not given) | > 100 | > 100 | > 100 | > 100 | > 100 | > 100 | – | – | – | – | – | – | – | – | – | – | – | – |
| C=CCC[CH2][Sn]([c]1ccccc1)([c]1ccccc1)[c]1ccccc1 | 3.53 | 3.55 | 2.98 | 3.03 | 3.36 | 4.49 | 1850 | 2080 | 1510 | 1580 | 1830 | 2170 | – | – | – | – | – | – |
| O=C(NCCCCCCNC(=O)n1cc(F)c(=O)[nH]c1=O)NCCCOCCOCCOCCOCCOCCOCCOCCOCCOCCOCCOCCOCCOCCOCCOCCOCCOCCOCCOCCOCCOCCCNC(=O)C(O)C(O)C(O)C(O)CO (stereo not given) | – | > 100 | > 100 | > 100 | > 100 | > 100 | – | – | – | – | – | – | > 100000 | > 100 | > 100 | > 100 | > 100 | > 100 |
| CCOC(=O)COc1ccccc1/C=C1\CCC(CN(C)C)C1=O (stereo not given) | 34.4 | – | 12.2 | 8.17 | 30.2 | 8.98 | – | – | – | – | – | – | 1540 | – | 3.47 | – | – | – |
| CC1(C)C(=NNC(=O)C[N+](C)(C)C)C(C)(C)C1=NNC(=O)C[N+](C)(C)C | > 100 | > 100 | > 100 | > 100 | > 100 | > 100 | – | – | – | – | – | – | – | – | – | – | – | – |
| CCCCCCCCCCCC(=O)OCC1OC(n2cc(F)c(=O)[nH]c2=O)C(NC(=O)OCc2ccccc2)C(OC(=O)CCCCCCCCCCC)C1O (stereo not given) | > 100 | > 100 | > 100 | > 100 | > 100 | > 100 | – | – | – | – | – | – | – | – | – | – | – | – |
